The text below walks through data of ChEMBL document CHEMBL4033637, “Developing DYRK inhibitors derived from the meridianins as a means of increasing levels of NFAT in the nucleus” (Bioorg Med Chem Lett, 2017).

In experiment [1] the target is Glycogen synthase kinase-3 beta (Homo sapiens, UniProt P49841). In words: Inhibition of full-length recombinant human His-tagged GSK3B recombinant in baculovirus expression system using Alexa-Fluor tracer-236 incubated for 60 mins by TR-FRET based Lantha-screen Eu kinase assay. In general terms: TR-FRET usually uses a lanthanide donor and a delayed reading to cut background.
Glycogen synthase kinase-3 beta, sequence (P49841 whole entry): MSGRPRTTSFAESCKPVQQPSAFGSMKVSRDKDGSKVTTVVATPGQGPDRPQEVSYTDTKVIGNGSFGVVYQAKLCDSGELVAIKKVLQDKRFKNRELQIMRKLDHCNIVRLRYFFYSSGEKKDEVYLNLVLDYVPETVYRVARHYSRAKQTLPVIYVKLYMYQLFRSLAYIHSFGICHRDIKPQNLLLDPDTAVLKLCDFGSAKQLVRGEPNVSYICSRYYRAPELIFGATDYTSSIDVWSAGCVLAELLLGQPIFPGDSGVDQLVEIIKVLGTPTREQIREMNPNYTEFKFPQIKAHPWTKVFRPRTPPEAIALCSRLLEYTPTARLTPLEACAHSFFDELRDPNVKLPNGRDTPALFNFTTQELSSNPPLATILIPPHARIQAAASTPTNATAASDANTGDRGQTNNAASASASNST

Experiment [2] has as its target Dual specificity tyrosine-phosphorylation-regulated kinase 1A (Homo sapiens, UniProt Q13627).
The nature of experiment [3]: Induction of nuclear localization of GFP-tagged NFAT (unknown origin) expressed in mouse muscle fibres by DAPI staining based assay.

Broadly, the IC50 is the concentration that inhibits the measured activity by half. What is called EC50 is the concentration at which the effect is half-maximal. A low value points to a more potent agent.

On to `Nc1nccc(-c2c[nH]c3ccccc23)n1`, for which the half-inhibitory concentration (IC50) in experiment [1] (read-out: IC50) was determined as 14800 nM; in experiment [2], 588 nM.

Regarding `Nc1nccc(-c2c[nH]c3cc(C(F)(F)F)ccc23)n1`, the results for the IC50 in experiment [1] (read-out: IC50) and in experiment [2] were 15300 nM and 62 nM, respectively.

Take `CC(C)n1cc(-c2ccncc2)c2ccncc21`: the IC50 was determined as 660 nM in experiment [1] (read-out: IC50) and 8 nM in experiment [2]. In experiment [3], the EC50 came out at 2800 nM.

As for `Nc1nccc(-c2c[nH]c3cc(Cl)ccc23)n1`, the figures for the half-inhibitory concentration (IC50) in experiment [1] (read-out: IC50) and in experiment [2] were 10700 nM and 406 nM, respectively.

In the case of `COc1ccc2c(-c3ccnc(N)n3)c[nH]c2c1`, the values for the IC50 in experiment [1] (read-out: IC50) and in experiment [2] were 7960 nM and 443 nM, respectively.

For the compound `Cn1cc(-c2ccncc2)c2ccncc21`, the IC50 in experiment [1] (read-out: IC50) turned out to be 4780 nM; in experiment [2], 89 nM.

Turning to `c1cc(-c2cn(CCCN3CCOCC3)c3cnccc23)ccn1`, the IC50 in experiment [1] (read-out: IC50) is 7580 nM; in experiment [2] it was 109 nM.

Take `Nc1cc(-c2c[nH]c3cnccc23)ccn1`: the IC50 entry in experiment [1] was “Not Active”; in experiment [2], 2020 nM.

Turning to `Nc1cc(-c2c[nH]c3c([N+](=O)[O-])cccc23)ccn1`, the IC50 result in experiment [1] was “Not Active”; in experiment [2], 285 nM.

With `c1cc(-c2cn(CCC3CC3)c3cnccc23)ccn1`, the IC50 turned out to be 1140 nM in experiment [1] (read-out: IC50) and 8 nM in experiment [2].

Regarding `N#Cc1cccc2c(-c3ccnc(N)n3)c[nH]c12`, the IC50 in experiment [1] (read-out: IC50) is 5160 nM; in experiment [2], 138 nM.

On to `Nc1cc(-c2c[nH]c3cc(C(F)(F)F)ccc23)ccn1`, for which the values for the IC50 entry in experiment [1] and in experiment [2] were “Not Active” and 4340 nM, respectively.

As for `Nc1nccc(-c2c[nH]c3c(Cl)cccc23)n1`, the IC50 entry in experiment [1] was “Not Active”; in experiment [2], 46 nM.

`Nc1nccc(-c2c[nH]c3c([N+](=O)[O-])cccc23)n1`: the IC50 in experiment [1] (read-out: IC50) was 9950 nM.

Regarding `Nc1nccc(-c2c[nH]c3c(Br)cccc23)n1`, the results for the IC50 in experiment [1] (read-out: IC50) and in experiment [2] were 22400 nM and 79 nM, respectively.

`c1ccc2c(-c3c[nH]c4cnccc34)ccnc2c1`: the IC50 result in experiment [1] is “Not Active”; in experiment [2] it was 277 nM.

On to `Clc1cnccc1-c1c[nH]c2cnccc12`, for which the figures for the IC50 in experiment [1] (read-out: IC50) and in experiment [2] were 9610 nM and 61 nM, respectively.

In the case of `Cc1cc(-c2c[nH]c3cnccc23)ccn1`, the results for the IC50 entry in experiment [1] and in experiment [2] were “Not Active” and 75 nM, respectively.

On to `Fc1ccc(Cn2cc(-c3ccncc3)c3ccncc32)cc1`, for which the IC50 came out at 1010 nM in experiment [1] (read-out: IC50) and 12 nM in experiment [2].

In the case of `Nc1cc(-c2c[nH]c3c(Cl)cccc23)ccn1`, the results for the IC50 result in experiment [1] and in experiment [2] were “Not Active” and 94 nM, respectively.

On to `COc1cccc2c(-c3ccnc(N)c3)c[nH]c12`, for which the IC50 entry is “Not Active” in experiment [1] and 2140 nM in experiment [2].

Regarding `Nc1nccc(-c2c[nH]c3cnccc23)n1`, the results for the IC50 in experiment [1] (read-out: IC50) and in experiment [2] were 12300 nM and 1 nM, respectively.

Regarding `COc1cc(-c2c[nH]c3cnccc23)ccn1`, the values for the IC50 entry in experiment [1] and in experiment [2] were “Not Active” and 351 nM, respectively.

As to `Cc1nccc(-c2c[nH]c3cnccc23)n1`, the IC50 entry in experiment [1] is “Not Active”; in experiment [2], 19 nM.

Consider `c1cc(-c2c[nH]c3cnccc23)ccn1`, for which the IC50 in experiment [1] (read-out: IC50) is 9230 nM; in experiment [2], 1 nM.

With `N#Cc1cccc2c(-c3ccnc(N)c3)c[nH]c12`, the IC50 was 13900 nM in experiment [1] (read-out: IC50) and 790 nM in experiment [2].

Regarding `Fc1cc(-c2c[nH]c3cnccc23)ccn1`, the IC50 entry was “Not Active” in experiment [1] and 69 nM in experiment [2].

Regarding `c1cncc(-c2c[nH]c3cnccc23)c1`, the IC50 was determined as 31000 nM in experiment [1] (read-out: IC50) and 7960 nM in experiment [2].

`COc1ccc2c(-c3ccnc(N)c3)c[nH]c2c1`: the IC50 in experiment [1] (read-out: IC50) was 12700 nM; in experiment [2], 2900 nM.

In the case of `Nc1cc(-c2c[nH]c3cc(Cl)ccc23)ccn1`, the half-inhibitory concentration (IC50) result in experiment [1] was “Not Active”; in experiment [2] it was 2940 nM.

As for `COc1cccc2c(-c3ccnc(N)n3)c[nH]c12`, the IC50 stood at 15800 nM in experiment [1] (read-out: IC50) and 242 nM in experiment [2].

As for `COc1ccc2c(c1)[nH]c1c(C)nccc12` [HARMINE], in experiment [1], the IC50 result is on record as “Not Active”.
